Experimental data as given in patent US9556202B2, “Sulfonamide derivatives and methods of use thereof for improving the pharmacokinetics of a drug” (MERCK SHARP & DOHME CORP., priority 2012, dated 2017).

Assays:
CYP3A4 = target: T1, CYP3A4 (Homo sapiens, UniProt P08684); assay: IC50 vs CYP3A by inhibition of lopinavir metabolism in human liver microsomes; assay type: biochemical; conditions: human liver microsomes 0.01 mg/mL, 1.5 μM lopinavir, 8 min 37° C.; test conc. e.g. 0.098-100 nM; unit inferred; read-out: 3A4(LPV)
T1 construct: 0.01 mg/mL protein human liver microsomes (BD Gentest); tissue BD Gentest; host or cells: human liver microsomes
Method: Determination of IC50 Vs CYP3A by Measurement of Inhibition of Lopinavir Metabolism
This assay was performed in a standard 96-well plate design. IC50 values were calculated from the percent inhibition observed for each test compound at 6 concentrations (for example, 0.098, 0.391, 1.56, 6.25, 25 and 100 nM). The incubation substrate mix contains 1.5 μM lopinavir, 0.01 mg/mL protein human liver microsomes (BD Gentest), 1 mM NAPDH, 3.3 mM MgCl2 and 100 mM potassium phosphate buffer (pH 7.4). The production of the sum of three hydroxylated metabolites (M2: 6-hydroxy lopinavir, M3: 4-hydroxy lopinavir, M4: 4-hydroxy lopinavir (epimer of M3), Kumar et al., 1999) was determined after incubation for 8 min at 37° C. Quantitation of the metabolite peak area ratio against an internal standard (tolbutamide) was determined by LC/MS/MS analysis following acetonitrile treatment of the incubations.
Samples were analyzed in the MRM mode with a SCIEX API-4000 mass spectrometer (Applied Biosystems, Foster City, Calif.), with a Shimadzu LC-20 AD pump (Shimadzu corporation, Kyoto, JP) and a CTC PAL autosampler (Agilent Technologies, Switzerland). A Phenomenex, Luna, 5 μm, 100 A, 2.00×30 mm HPLC column was used for the separation. The mobile phases were: (A) 0.1% formic acid in water and (B) 0.1% formic acid in acetonitrile. The binary gradient was as follows.
The peak area ratio of the analyte to the internal standard was used to quantify the metabolite. The values of peak area ratios in the presence of test compound were compared to those of maximum or minimum controls and were expressed as % inhibition by interpolating between the maximum and minimum peak area ratios. Incubations with no inhibitor were defined as the maxima and with 5 μM ketoconazole were defined as the minima.
The following equation was used to calculate the % inhibition: [1−[(X−Low control)/(High control−Low control)]]*100
For the IC50 calculation, SigmaPlot was used to plot the mean % inhibition versus the test compound concentrations and for non-linear regression analysis of the data. Depending on the range of data points defining the inhibition curve, the data may have been fit to the 4-parameter logistic equation.

human CYP11B2 = target: T2, human CYP11B2 (Homo sapiens, UniProt P19099); assay: IC50 vs CYP11B2 by aldosterone synthesis in V79 cells (HTRF); assay type: cell-based; conditions: V79 cells expressing human CYP11B2, 750 nM DOC, test conc. 0.5-10000 nM, unit inferred
T2 construct: expressed in transfected cells
T2 sequence (P19099 25-503): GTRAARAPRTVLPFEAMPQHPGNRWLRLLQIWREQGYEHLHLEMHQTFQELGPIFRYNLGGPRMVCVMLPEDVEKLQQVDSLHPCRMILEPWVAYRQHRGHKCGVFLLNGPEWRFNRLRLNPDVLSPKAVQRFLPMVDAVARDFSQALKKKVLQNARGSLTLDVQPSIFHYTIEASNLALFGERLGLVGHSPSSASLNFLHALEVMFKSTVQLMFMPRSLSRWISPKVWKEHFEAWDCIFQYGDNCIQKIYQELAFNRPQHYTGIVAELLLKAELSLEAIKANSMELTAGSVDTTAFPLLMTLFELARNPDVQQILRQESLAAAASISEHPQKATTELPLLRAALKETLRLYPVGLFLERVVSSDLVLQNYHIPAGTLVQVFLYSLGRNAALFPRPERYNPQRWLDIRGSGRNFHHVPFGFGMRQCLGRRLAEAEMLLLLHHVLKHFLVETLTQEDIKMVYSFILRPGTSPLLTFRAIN
Method: Determination of IC50 Vs CYP11B1/CYP11B2 by Measurement of Cortisol/Aldosterone Synthesis
This assay was performed in a standard 384-well plate design using cultured V79 cells stably expressing human CYP11B1 or human CYP11B2. Test compounds at 10 concentrations (for example, 10000, 3333.3, 1111.1, 370.4, 123.5, 41.2, 13.7, 4.6, 1.5 and 0.5 nM) were added in 384-well plate after the cell-seeding procedure. The incubation substrate contains 1500 nM RSS for CYP11B1 assay/750 nM DOC for CYP11B2 assay. The Cortisol/Aldosterone production of cell culture supernatant was determined by Cortisol/Aldosterone HTRF kit after for about 15 hours incubation at RT (protect from light). IC50 values were calculated from the percent inhibition observed for each test compound at 10 concentrations.
The assay plate was read using Envision (Perkin Elmer, Waltham, Mass.) at 665 nm and 590 nm (using Filter Barcode of 217#, 205#; Mirror Barcode of 446#).
Data are analyzed using Assay Data Analyzer. All ratio data (665 nm/590 nm) are back calculated according to the standard curve, resulting in Cortisol/Aldosterone concentrations. IC50 values are reported as the Inflection Point (IP) of a four parameter fit of the titration data.
The following equation was used to calculate the % inhibition: % Activity=100×{1−(Sample_back calculated Cortisol/Aldosterone concentration−LC_back calculated Cortisol/Aldosterone concentration)/(HC_back calculated Cortisol/Aldosterone concentration−LC_back calculated Cortisol/Aldosterone concentration)} Curve Fitting: Four Parameter Logistic: […]

T1 sequence (P08684 2-503): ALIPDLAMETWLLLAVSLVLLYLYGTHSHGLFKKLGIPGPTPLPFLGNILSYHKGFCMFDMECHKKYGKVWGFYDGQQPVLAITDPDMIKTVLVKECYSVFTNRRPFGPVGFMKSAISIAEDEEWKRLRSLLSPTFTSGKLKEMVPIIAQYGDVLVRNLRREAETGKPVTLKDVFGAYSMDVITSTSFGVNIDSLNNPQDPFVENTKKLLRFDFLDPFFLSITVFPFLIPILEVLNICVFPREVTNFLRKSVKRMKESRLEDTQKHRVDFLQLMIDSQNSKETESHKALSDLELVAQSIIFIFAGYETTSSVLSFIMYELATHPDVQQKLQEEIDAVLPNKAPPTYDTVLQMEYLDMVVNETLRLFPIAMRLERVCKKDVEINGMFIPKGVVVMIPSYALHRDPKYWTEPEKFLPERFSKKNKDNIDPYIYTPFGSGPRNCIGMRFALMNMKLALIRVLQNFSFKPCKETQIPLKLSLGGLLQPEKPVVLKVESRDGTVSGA

SMILES	IC50 (CYP3A4)	IC50 (human CYP11B2)
C[C@H](c1ccc(F)cc1)n1cncc1C1CC12CCN(S(=O)(=O)c1cnc(N3CCN(C)CC3)s1)CC2 (single isomer, unassigned) [Compound 43a]	6 nM	
C[C@H](c1ccc(F)cc1)n1cncc1CN1CCN(S(=O)(=O)c2cnc(N3CCN(C)CC3)s2)CC1 [Compound 2]	1 nM	
C[C@H](c1ccc(F)cc1)n1cncc1CN1CCN(S(=O)(=O)c2cnc(N3CCN4C[C@H](O)C[C@H]4C3)s2)CC1 [Compound 5]	3.8 nM	
C[C@H](c1ccc(F)cc1)n1cncc1CN1CCN(S(=O)(=O)c2cnc(N3CCN4C[C@H](O)C[C@@H]4C3)s2)CC1 [Compound 6]	1.4 nM	
C[C@H](c1ccc(F)cc1)n1cncc1CN1CCN(S(=O)(=O)c2cnc(N3CCC(S(C)(=O)=O)C3)s2)CC1 (stereo partly shown) [Compound 7]	1.7 nM	16300 nM
C[C@H](c1ccc(F)cc1)n1cncc1CN1CCN(S(=O)(=O)c2cnc(N3CCC(S(C)(=O)=O)C3)s2)CC1 (stereo partly shown) [Compound 8]	1.8 nM	
C[C@H](c1ccc(F)cc1)n1cncc1CN1CCN(S(=O)(=O)c2cnc(N3CCN(C4CCN(C)CC4)CC3)s2)CC1 [Compound 9]	2.8 nM	
C[C@H](c1ccc(F)cc1)n1cncc1CN1CCN(S(=O)(=O)c2cnc(N3CC[C@@H]4NCCO[C@H]4C3)s2)CC1 [Compound 15]	1.2 nM	
C[C@H](c1ccc(F)cc1)n1cncc1CN1CCN(S(=O)(=O)c2cnc(N3CC(=O)N4C[C@H](O)C[C@H]4C3)s2)CC1 [Compound 16]	5.2 nM	
C[C@H](c1ccc(F)cc1)n1cncc1CN1CCN(S(=O)(=O)c2cnc(N3CCN4C[C@H](O)CC[C@H]4C3)s2)CC1 [Compound 19]	1.7 nM	
C[C@H](c1ccc(F)cc1)n1cncc1CN1CCN(S(=O)(=O)c2cnc(N3C[C@@H]4C[C@@H](O)CN4C[C@@H]3C)s2)CC1 [Compound 21]	1.9 nM	
C[C@H](c1ccc(F)cc1)n1cncc1CN1CCN(S(=O)(=O)c2cnc(N3CCN4C[C@H](O)CC4(C)C3)s2)CC1 (stereo partly shown) [Compound 24]	1.9 nM	
C[C@H](c1ccc(F)cc1)n1cncc1CN1CCN(S(=O)(=O)c2cnc(N3CCC(N)(CO)CC3)s2)CC1 [Compound 25]	1.9 nM	
C[C@H](c1ccc(F)cc1)n1cncc1CN1CCN(S(=O)(=O)c2cnc(N3CCN4C(=O)OC[C@H]4C3)s2)CC1 [Compound 26]	1.5 nM	
C[C@H](c1ccc(F)cc1)n1cncc1C1COCC2CN(S(=O)(=O)c3cnc(Nc4ccccn4)s3)CCN21 (stereo partly shown) [Compound 40]	0.8 nM	
C[C@H](c1ccc(F)cc1)n1cncc1C1CN(C)CC2CN(S(=O)(=O)c3cnc(Nc4ccccn4)s3)CCN21 (stereo partly shown) [Compound 41]	2.1 nM	
C[C@H](c1ccc(F)cc1)n1cncc1CC1(CO)CCN(S(=O)(=O)c2cnc(N3CCN(C)CC3)s2)CC1 [Compound 47]	13 nM	

Second part, the compound after the results:

IC50 (CYP3A4)	IC50 (human CYP11B2)	SMILES
2 nM		C[C@H](c1ccc(F)cc1)n1cncc1C1CC12CCN(S(=O)(=O)c1cnc(N3CCN(C)CC3)s1)CC2 (single isomer, unassigned) [Compound 43b]
1.4 nM		C[C@H](c1ccc(F)cc1)n1cncc1CN1CCN(S(=O)(=O)c2cnc(N3CCNCC3)s2)CC1 [Compound 1]
2.7 nM		C[C@H](c1ccc(F)cc1)n1cncc1CN1CCN(S(=O)(=O)c2cnc(N3CCC4(CC3)CNC(=O)N4)s2)CC1 [Compound 3]
< 0.1 nM		C[C@H](c1ccc(C#N)cc1)n1cncc1CN1CCN(S(=O)(=O)c2cnc(Nc3ccc(C(F)(F)F)cn3)s2)CC1 [Compound 4]
1 nM		C[C@H](c1ccc(F)cc1)n1cncc1CN1CCN(S(=O)(=O)c2cnc(N3CC[C@@H](N)[C@H](F)C3)s2)CC1 [Compound 12]
1.4 nM		C[C@H](c1ccc(F)cc1)n1cncc1CN1CCN(S(=O)(=O)c2cnc(N3CC[C@@H]4OCCN[C@H]4C3)s2)CC1 [Compound 13]
1.7 nM		C[C@H](c1ccc(F)cc1)n1cncc1CN1CCN(S(=O)(=O)c2cnc(NCC(F)CN)s2)CC1 (stereo partly shown) [Compound 17]
1.1 nM		C[C@H](c1ccc(F)cc1)n1cncc1CN1CCN(S(=O)(=O)c2cnc(N3CCN4C[C@H](O)C[C@H]4C3=O)s2)CC1 [Compound 18]
4.1 nM		C[C@H](c1ccc(F)cc1)n1cncc1CN1CCN(S(=O)(=O)c2cnc(N3CC[C@@H](N4CCOCC4)[C@H](F)C3)s2)CC1 [Compound 20]
1.6 nM		CC1CN(c2ncc(S(=O)(=O)N3CCN(Cc4cncn4[C@H](C)c4ccc(F)cc4)CC3)s2)C[C@@H]2C[C@@H](O)CN12 (stereo partly shown) [Compound 23]
2.6 nM		C[C@H](c1ccc(F)cc1)n1cncc1CN1CCN(S(=O)(=O)c2cnc(N3CCN4CCC(O)[C@H]4C3)s2)CC1 (stereo partly shown) [Compound 27]
4.4 nM		C[C@H](c1ccc(F)cc1)n1cncc1CN1CCN(S(=O)(=O)c2ccc(N3CCNCC3)cn2)CC1 [Compound 28]
2.9 nM		C[C@H](c1ccc(F)cc1)n1cncc1CN1CCN(S(=O)(=O)c2cncc(N3CCNCC3)c2)CC1 [Compound 29]
3.6 nM		C[C@H](c1ccc(F)cc1)n1cncc1CN1CCN(S(=O)(=O)c2cnc(N3CCNCC3)cn2)CC1 [Compound 30]
4.4 nM		Cc1ccc(C2(n3cncc3CN3CCN(S(=O)(=O)c4cnc(N5CCN(C)CC5)s4)CC3)CC2)nc1 [Compound 31]
1.2 nM		CN1CCN(c2ncc(S(=O)(=O)N3CCN(Cc4cncn4CCOc4ccc(Cl)cc4)CC3)s2)CC1 [Compound 32]
2.3 nM		CN1CCN(c2ncc(S(=O)(=O)N3CCN(Cc4cncn4CCOc4ccc(F)cn4)CC3)s2)CC1 [Compound 33]
4.1 nM		CC(c1cncn1[C@H](C)c1ccc(F)cc1)N1CCN(S(=O)(=O)c2cnc(N3CCN4C[C@H](O)C[C@H]4C3)s2)CC1 (stereo partly shown) [Compound 37]
8 nM		C[C@H](c1ccc(F)cc1)n1cncc1C1C(=O)OCC2CN(S(=O)(=O)c3cnc(Nc4ccc(C(F)(F)F)cn4)s3)CCN21 (stereo partly shown) [Compound 39]
32 nM		C[C@H](c1ccc(F)cc1)n1cnnc1CN1CCN(S(=O)(=O)c2cnc(N3CCN4C[C@H](O)C[C@H]4C3)s2)CC1 [Compound 42]
1.1 nM		C[C@H](c1ccc(F)cc1)n1cncc1CC1CCN(S(=O)(=O)c2cnc(N3CCN(C)CC3)s2)CC1 [Compound 44]
9.4 nM		C[C@H](c1ccc(F)cc1)n1cncc1CC1(C#N)CCN(S(=O)(=O)c2cnc(N3CCN(C)CC3)s2)CC1 [Compound 48]
